Key:
[1] = tested on: MMP-7; assay: Immunohistochemistry of MMP-7 in respiratory tract tissue of sodium hypochlorite aerosol-treated rabbits; assay type: in vivo, New Zealand albino rabbits
Text: (§1) It is known that the factors TGF-α, TGF-β 1, TGF-β 2, TGF-β 3, SPARC, MMP-3; MMP-7, MMP-9, MMP-11, MMP-13 and MMP-14, TGF-β, NF-kB, EGF, MMP-9, VEGF and TNF-α which are produced by lung cells (pneumocytes, fibroblasts and vascular endothelial cells) and inflammatory cells (macrophages, lymphocytes and polymorphonuclear leukocytes) are involved in the pathophysiology and development of said respiratory tract diseases. […] Herein, 27 New Zealand albino rabbits (New Zealand White Rabbit) with an initial average weight about 3 kg were used in this example. All subjects were administered an aerosol of a solution consisting of a mixture of water and sodium hypochlorite (35 g sodium hypochlorite per liter of water) at a rate of 5 mL of said solution by inhalation three times a day for 7 days (days 1 to 7 of experimentation). Subsequently, from days 3 to 7, a group of 3 rabbits (Group 1) was administered an oral dose of 10 mg/kg body weight per day, another group of 3 rabbits (Group 2) was administered an oral dose of 40 mg/kg body weight per day, a third group (Group 3) was administered an oral dose of 80 mg/kg body weight per day and a fourth group (Group 4) was administered an oral dose of 100 mg/kg body weight per day. […] This mixture was administered as an aerosol by inhalation, also from days 3 to 7, to a group of 3 rabbits (group 5) at a dose of 0.05 mg/kg body weight per day, to another group of three rabbits (Group 6) at a dose of 0.1 mg/kg body weight per day, to another group of three rabbits (Group 7) at a dose of 0.2 mg/kg body weight per day and to another group of three rabbits (Group 8) at a dose of 0.4 mg/kg body weight per day. A placebo consisting only of olive oil was administered from days 3 to 7 to a control group of 3 rabbits (placebo group). In parallel, 3 rabbits were kept under identical conditions but were not administered any treatment nor the aforementioned sodium hypochlorite solution (control group). […] On day 7 of the experiment all animals were euthanized and necropsied. […] Samples were taken at the peripheral level of the lung parenchyma, just below the pleural surface. Tissue samples were also taken from the nasal cavity, pharynx, larynx and bronchi. Immunohistochemistry studies were performed for all samples to evaluate the levels of the markers TGF-α, TGF-β 1, TGF-β 2, TGF-β 3 SPARC, MMP-3; MMP-7, MMP-9, MMP-11, MMP-14, TGF-β, TNF-α and VEGF. In said immunohistochemistry studies, a sample of each sample was dehydrated by treatment with increasing concentrations of ethanol and finally xylene. Subsequently said dried samples were embedded in paraffin, thus creating a block. Said paraffin blocks were cut on a microtome to a thickness of 5 μm, and the resulting sections (slices) were placed on slides suitable for conducting immunohistochemistry techniques. Subsequently, the sections were deparaffinised by immersion in xylene and then rehydrated through immersion in a series of solutions containing decreasing concentrations of ethanol and, finally, water. […] The samples were then allowed to cool to room temperature over 10 minutes. Endogenous peroxidase activity was blocked by treatment with 3% hydrogen peroxide over 30 min at room temperature. […] In order to verify the expression of NK1 receptors, the cell samples were incubated in the presence of anti-NK1 antibodies ([…], Sigma-Aldrich) diluted 1:1000 at 4° C. overnight. After this time they were washed in 0.05M Tris buffer at room temperature. Subsequently, Envision System-HRP (Dako) reagents were added for 30 min at room temperature. Once this time had expired, the samples were again washed with 0.05 M Tris buffer, and immunoreactivity was visualized by light microscopy with a chromogenic solution with 3,3'-diaminobenzidine (DAB+; Dako, USA). In order to differentiate the cell nuclei, these were lightly stained with haematoxylin. Samples that were not incubated with the primary antibody, but wherein this was replaced by a non-immune serum were used as negative controls. […]

[2] = tested on: TGFβ1; assay: Immunohistochemistry of TGFβ1 in respiratory tract tissue of sodium hypochlorite aerosol-treated rabbits; assay type: in vivo, New Zealand albino rabbits
Text: as §1

[3] = bronchial tissue, Group 1, oral 10 mg/kg per day
[4] = bronchial tissue, Group 2, oral 40 mg/kg per day
[5] = bronchial tissue, Group 3, oral 80 mg/kg per day
[6] = bronchial tissue, Group 4, oral 100 mg/kg per day
[7] = laryngeal tissue, Group 1, oral 10 mg/kg per day
[8] = laryngeal tissue, Group 2, oral 40 mg/kg per day
[9] = laryngeal tissue, Group 3, oral 80 mg/kg per day
[10] = laryngeal tissue, Group 4, oral 100 mg/kg per day
[11] = laryngeal tissue, Group 5, inhalation 0.05 mg/kg per day
[12] = laryngeal tissue, Group 6, inhalation 0.1 mg/kg per day
[13] = laryngeal tissue, Group 7, inhalation 0.2 mg/kg per day
[14] = laryngeal tissue, Group 8, inhalation 0.4 mg/kg per day
[15] = lung tissue, Group 1, oral 10 mg/kg per day
[16] = lung tissue, Group 2, oral 40 mg/kg per day
[17] = lung tissue, Group 3, oral 80 mg/kg per day
[18] = lung tissue, Group 4, oral 100 mg/kg per day
[19] = lung tissue, Group 5, inhalation 0.05 mg/kg per day
[20] = lung tissue, Group 6, inhalation 0.1 mg/kg per day
[21] = lung tissue, Group 7, inhalation 0.2 mg/kg per day
[22] = lung tissue, Group 8, inhalation 0.4 mg/kg per day
[23] = nasal cavity tissue, Group 1, oral 10 mg/kg per day
[24] = nasal cavity tissue, Group 2, oral 40 mg/kg per day
[25] = nasal cavity tissue, Group 3, oral 80 mg/kg per day
[26] = nasal cavity tissue, Group 4, oral 100 mg/kg per day
[27] = nasal cavity tissue, Group 5, inhalation 0.05 mg/kg per day
[28] = nasal cavity tissue, Group 6, inhalation 0.1 mg/kg per day
[29] = nasal cavity tissue, Group 7, inhalation 0.2 mg/kg per day
[30] = nasal cavity tissue, Group 8, inhalation 0.4 mg/kg per day
[31] = pharyngeal tissue, Group 1, oral 10 mg/kg per day
[32] = pharyngeal tissue, Group 2, oral 40 mg/kg per day
[33] = pharyngeal tissue, Group 3, oral 80 mg/kg per day
[34] = pharyngeal tissue, Group 4, oral 100 mg/kg per day
[35] = pharyngeal tissue, Group 5, inhalation 0.05 mg/kg per day
[36] = pharyngeal tissue, Group 6, inhalation 0.1 mg/kg per day
[37] = pharyngeal tissue, Group 7, inhalation 0.2 mg/kg per day
[38] = pharyngeal tissue, Group 8, inhalation 0.4 mg/kg per day

## C[C@@H](OC1OCCN(Cc2nc(=O)[nH][nH]2)C1c1ccc(F)cc1)c1cc(C(F)(F)F)cc(C(F)(F)F)c1 (stereo in doubt) [Aprepitant, 5-([(2R,3S)-2-((R)-1-[3,5-bis(trifluoromethyl)phenyl]ethoxy)-3-(4-fluorophenyl)morpholino]methyl)-1H-1,2,4-triazol-3(2H)-one]
[1]; [3]
  Percent increase in MMP-7 with respect to the control group: 504.23%
[1]; [4]
  Percent increase in MMP-7 with respect to the control group: 406.34%
[1]; [5]
  Percent increase in MMP-7 with respect to the control group: 398.45%
[1]; [6]
  Percent increase in MMP-7 with respect to the control group: 289.56%
[1]; bronchial tissue, Group 5
  % Med G5/C: percent increase in marker MMP-7 with respect to the control group: 549.34%
[1]; bronchial tissue, Group 6
  % Med G6/C: percent increase in marker MMP-7 with respect to the control group: 467.45%
[1]; bronchial tissue, Group 7
  % Med G7/C: percent increase in marker MMP-7 with respect to the control group: 356.47%
[1]; bronchial tissue, Group 8
  % Med G8/C: percent increase in marker MMP-7 with respect to the control group: 241.56%
[1]; [7]
  Percent increase in MMP-7 with respect to the control group: 1,012.67%
[1]; [8]
  Percent increase in MMP-7 with respect to the control group: 899.78%
[1]; [9]
  Percent increase in MMP-7 with respect to the control group: 788.56%
[1]; [10]
  Percent increase in MMP-7 with respect to the control group: 576.89%
[1]; [11]
  Percent increase in MMP-7 with respect to the control group: 1,205.45%
[1]; [12]
  Percent increase in MMP-7 with respect to the control group: 809.54%
[1]; [13]
  Percent increase in MMP-7 with respect to the control group: 372.23%
[1]; [14]
  Percent increase in MMP-7 with respect to the control group: 112.25%
[1]; [15]
  Percent increase in MMP-7 with respect to the control group: 345.90%
[1]; [16]
  Percent increase in MMP-7 with respect to the control group: 325.50%
[1]; [17]
  Percent increase in MMP-7 with respect to the control group: 220.38%
[1]; [18]
  Percent increase in MMP-7 with respect to the control group: 184.56%
[1]; [19]
  Percent increase in MMP-7 with respect to the control group: 321.48%
[1]; [20]
  Percent increase in MMP-7 with respect to the control group: 232.63%
[1]; [21]
  Percent increase in MMP-7 with respect to the control group: 142.07%
[1]; [22]
  Percent increase in MMP-7 with respect to the control group: 109.05%
[1]; [23]
  Percent increase in MMP-7 with respect to the control group: 2,267.10%
[1]; [24]
  Percent increase in MMP-7 with respect to the control group: 1,308.16%
[1]; [25]
  Percent increase in MMP-7 with respect to the control group: 1,119.62%
[1]; [26]
  Percent increase in MMP-7 with respect to the control group: 942.01%
[1]; [27]
  Percent increase in MMP-7 with respect to the control group: 1,835.98%
[1]; [28]
  Percent increase in MMP-7 with respect to the control group: 1,147.87%
[1]; [29]
  Percent increase in MMP-7 with respect to the control group: 444.94%
[1]; [30]
  Percent increase in MMP-7 with respect to the control group: 136.90%
[1]; [31]
  Percent increase in MMP-7 with respect to the control group: 2,004.34%
[1]; [32]
  Percent increase in MMP-7 with respect to the control group: 1,591.34%
[1]; [33]
  Percent increase in MMP-7 with respect to the control group: 1,456.45%
[1]; [34]
  Percent increase in MMP-7 with respect to the control group: 967.12%
[1]; [35]
  Percent increase in MMP-7 with respect to the control group: 1,820.78%
[1]; [36]
  Percent increase in MMP-7 with respect to the control group: 1,109.45%
[1]; [37]
  Percent increase in MMP-7 with respect to the control group: 450.45%
[1]; [38]
  Percent increase in MMP-7 with respect to the control group: 121.80%
[2]; [3]
  Percent increase in TGFβ1 with respect to the control group: 1,234.56%
[2]; [4]
  Percent increase in TGFβ1 with respect to the control group: 984.45%
[2]; [5]
  Percent increase in TGFβ1 with respect to the control group: 768.32%
[2]; [6]
  Percent increase in TGFβ1 with respect to the control group: 502.23%
[2]; bronchial tissue, Group 5
  % Med G5/C: percent increase in marker TGFβ1 with respect to the control group: 1,103.34%
[2]; bronchial tissue, Group 6
  % Med G6/C: percent increase in marker TGFβ1 with respect to the control group: 708.45%
[2]; bronchial tissue, Group 7
  % Med G7/C: percent increase in marker TGFβ1 with respect to the control group: 302.34%
[2]; bronchial tissue, Group 8
  % Med G8/C: percent increase in marker TGFβ1 with respect to the control group: 124.37%
[2]; [7]
  Percent increase in TGFβ1 with respect to the control group: 1,567.67%
[2]; [8]
  Percent increase in TGFβ1 with respect to the control group: 1,278.89%
[2]; [9]
  Percent increase in TGFβ1 with respect to the control group: 1,067.78%
[2]; [10]
  Percent increase in TGFβ1 with respect to the control group: 988.78%
[2]; [11]
  Percent increase in TGFβ1 with respect to the control group: 1,398.78%
[2]; [12]
  Percent increase in TGFβ1 with respect to the control group: 760.87%
[2]; [13]
  Percent increase in TGFβ1 with respect to the control group: 320.34%
[2]; [14]
  Percent increase in TGFβ1 with respect to the control group: 102.23%
[2]; [15]
  Percent increase in TGFβ1 with respect to the control group: 1,277.48%
[2]; [16]
  Percent increase in TGFβ1 with respect to the control group: 990.28%
[2]; [17]
  Percent increase in TGFβ1 with respect to the control group: 858.27%
[2]; [18]
  Percent increase in TGFβ1 with respect to the control group: 759.25%
[2]; [19]
  Percent increase in TGFβ1 with respect to the control group: 1,166.88%
[2]; [20]
  Percent increase in TGFβ1 with respect to the control group: 492.89%
[2]; [21]
  Percent increase in TGFβ1 with respect to the control group: 270.24%
[2]; [22]
  Percent increase in TGFβ1 with respect to the control group: 123.01%
[2]; [23]
  Percent increase in TGFβ1 with respect to the control group: 2,191.33%
[2]; [24]
  Percent increase in TGFβ1 with respect to the control group: 1,562.26%
[2]; [25]
  Percent increase in TGFβ1 with respect to the control group: 1,491.16%
[2]; [26]
  Percent increase in TGFβ1 with respect to the control group: 1,373.96%
[2]; [27]
  Percent increase in TGFβ1 with respect to the control group: 2,065.52%
[2]; [28]
  Percent increase in TGFβ1 with respect to the control group: 745.49%
[2]; [29]
  Percent increase in TGFβ1 with respect to the control group: 480.80%
[2]; [30]
  Percent increase in TGFβ1 with respect to the control group: 138.39%
[2]; [31]
  Percent increase in TGFβ1 with respect to the control group: 2,198.45%
[2]; [32]
  Percent increase in TGFβ1 with respect to the control group: 1,562.45%
[2]; [33]
  Percent increase in TGFβ1 with respect to the control group: 1,208.45%
[2]; [34]
  Percent increase in TGFβ1 with respect to the control group: 1,001.31%
[2]; [35]
  Percent increase in TGFβ1 with respect to the control group: 1,804.23%
[2]; [36]
  Percent increase in TGFβ1 with respect to the control group: 1,220.34%
[2]; [37]
  Percent increase in TGFβ1 with respect to the control group: 609.67%
[2]; [38]
  Percent increase in TGFβ1 with respect to the control group: 121.89%
